Assay results published in the CheMixHub ionic liquid set.
± gives the uncertainty stated by the source.

Test: xn = mol fraction of the nth substance listed

CC(N)C(=O)[O-].CCCC[n+]1ccn(C)c1C + O
viscosity [mPa·s], 100 kPa
Details	x1 = 0.1003	x1 = 0.3009	x1 = 0.6987	x1 = 1
293.15 K	22.3 ± 4.5	–	200 ± 41	370 ± 77
313.15 K	–	–	70 ± 14	–
318.15 K	–	18.9 ± 3.8	–	87 ± 17

CS(C)=O + COCCOCCn1cc[n+](CCC#N)c1.O=S(=O)([N-]S(=O)(=O)C(F)(F)F)C(F)(F)F
101.3 kPa, x2 = 0
Details	electrical conductivity [S/m]
293.15 K	0.000587 ± 1.2e-05
303.15 K	0.000881 ± 1.8e-05
313.15 K	0.00118 ± 2.4e-05
323.15 K	0.00148 ± 3e-05

COCCn1cc[n+](C)c1.N#C[S-] + CC1COC(=O)O1
101 kPa
Details	electrical conductivity [S/m]	viscosity [mPa·s]
288.15 K, x1 = 0.1022	0.963 ± 0.019	4.19 ± 0.84
288.15 K, x1 = 0.2001	1.05 ± 0.021	5.1 ± 1
288.15 K, x1 = 0.3021	0.967 ± 0.019	7.1 ± 1.4
288.15 K, x1 = 0.3996	0.843 ± 0.017	11 ± 2.2
288.15 K, x1 = 0.5012	0.717 ± 0.014	15.9 ± 3.2
288.15 K, x1 = 0.6015	0.586 ± 0.012	22.3 ± 4.5
288.15 K, x1 = 0.7032	0.471 ± 0.009	34.5 ± 6.9
288.15 K, x1 = 0.8004	0.381 ± 0.008	50 ± 10
288.15 K, x1 = 0.9002	0.286 ± 0.006	68 ± 14
288.15 K, x1 = 1	0.223 ± 0.005	86 ± 17
293.15 K, x1 = 0.1022	1.07 ± 0.021	3.54 ± 0.71
293.15 K, x1 = 0.2001	1.23 ± 0.025	4.31 ± 0.86
293.15 K, x1 = 0.3021	1.12 ± 0.023	6.1 ± 1.2
293.15 K, x1 = 0.3996	0.984 ± 0.02	9.2 ± 1.8
293.15 K, x1 = 0.5012	0.84 ± 0.017	12.7 ± 2.5
293.15 K, x1 = 0.6015	0.709 ± 0.014	17.5 ± 3.5
293.15 K, x1 = 0.7032	0.578 ± 0.012	26.2 ± 5.2
293.15 K, x1 = 0.8004	0.48 ± 0.01	37.8 ± 7.6
293.15 K, x1 = 0.9002	0.382 ± 0.008	51 ± 10
293.15 K, x1 = 1	0.315 ± 0.006	67 ± 13
298.15 K, x1 = 0.1022	1.19 ± 0.024	3.05 ± 0.61
298.15 K, x1 = 0.2001	1.4 ± 0.028	3.71 ± 0.74
298.15 K, x1 = 0.3021	1.3 ± 0.026	5.3 ± 1.1
298.15 K, x1 = 0.3996	1.16 ± 0.023	7.8 ± 1.6
298.15 K, x1 = 0.5012	1 ± 0.02	10.4 ± 2.1
298.15 K, x1 = 0.6015	0.844 ± 0.017	14 ± 2.8
298.15 K, x1 = 0.7032	0.714 ± 0.014	20.3 ± 4.1
298.15 K, x1 = 0.8004	0.591 ± 0.012	29 ± 5.8
298.15 K, x1 = 0.9002	0.492 ± 0.01	39.7 ± 7.9
298.15 K, x1 = 1	0.41 ± 0.008	53 ± 11
303.15 K, x1 = 0.1022	1.31 ± 0.026	2.67 ± 0.54
303.15 K, x1 = 0.2001	1.59 ± 0.032	3.27 ± 0.65
303.15 K, x1 = 0.3021	1.49 ± 0.03	4.67 ± 0.94
303.15 K, x1 = 0.3996	1.33 ± 0.027	6.6 ± 1.3
303.15 K, x1 = 0.5012	1.16 ± 0.023	8.6 ± 1.7
303.15 K, x1 = 0.6015	1.01 ± 0.02	11.3 ± 2.3
303.15 K, x1 = 0.7032	0.849 ± 0.017	16.1 ± 3.2
303.15 K, x1 = 0.8004	0.717 ± 0.014	22.8 ± 4.6
303.15 K, x1 = 0.9002	0.602 ± 0.012	31.3 ± 6.3
303.15 K, x1 = 1	0.52 ± 0.01	42.1 ± 8.4
308.15 K, x1 = 0.1022	1.44 ± 0.029	2.38 ± 0.48
308.15 K, x1 = 0.2001	1.79 ± 0.036	2.91 ± 0.58
308.15 K, x1 = 0.3021	1.69 ± 0.034	4.11 ± 0.82
308.15 K, x1 = 0.3996	1.53 ± 0.031	5.7 ± 1.1
308.15 K, x1 = 0.5012	1.34 ± 0.027	7.2 ± 1.4
308.15 K, x1 = 0.6015	1.17 ± 0.023	9.4 ± 1.9
308.15 K, x1 = 0.7032	1 ± 0.02	13 ± 2.6
308.15 K, x1 = 0.8004	0.867 ± 0.017	18.2 ± 3.6
308.15 K, x1 = 0.9002	0.749 ± 0.015	25 ± 5
308.15 K, x1 = 1	0.653 ± 0.013	34.4 ± 6.9
313.15 K, x1 = 0.1022	1.58 ± 0.032	2.14 ± 0.43
313.15 K, x1 = 0.2001	2 ± 0.04	2.59 ± 0.52
313.15 K, x1 = 0.3021	1.91 ± 0.038	3.65 ± 0.73
313.15 K, x1 = 0.3996	1.75 ± 0.035	4.9 ± 0.98
313.15 K, x1 = 0.5012	1.53 ± 0.031	6.2 ± 1.2
313.15 K, x1 = 0.6015	1.36 ± 0.027	7.9 ± 1.6
313.15 K, x1 = 0.7032	1.19 ± 0.024	10.8 ± 2.2
313.15 K, x1 = 0.8004	1.02 ± 0.02	14.8 ± 3
313.15 K, x1 = 0.9002	0.893 ± 0.018	20.5 ± 4.1
313.15 K, x1 = 1	0.795 ± 0.016	28.6 ± 5.7
318.15 K, x1 = 0.1022	1.72 ± 0.034	1.94 ± 0.39
318.15 K, x1 = 0.2001	2.21 ± 0.044	2.36 ± 0.47
318.15 K, x1 = 0.3021	2.14 ± 0.043	3.3 ± 0.66
318.15 K, x1 = 0.3996	1.97 ± 0.039	4.28 ± 0.86
318.15 K, x1 = 0.5012	1.75 ± 0.035	5.3 ± 1.1
318.15 K, x1 = 0.6015	1.55 ± 0.031	6.7 ± 1.3
318.15 K, x1 = 0.7032	1.36 ± 0.027	9.1 ± 1.8
318.15 K, x1 = 0.8004	1.2 ± 0.024	12.3 ± 2.5
318.15 K, x1 = 0.9002	1.07 ± 0.021	17.1 ± 3.4
318.15 K, x1 = 1	0.954 ± 0.019	23.7 ± 4.8
323.15 K, x1 = 0.1022	1.86 ± 0.037	1.78 ± 0.36
323.15 K, x1 = 0.2001	2.43 ± 0.049	2.16 ± 0.43
323.15 K, x1 = 0.3021	2.37 ± 0.047	2.97 ± 0.6
323.15 K, x1 = 0.3996	2.19 ± 0.044	3.77 ± 0.76
323.15 K, x1 = 0.5012	1.97 ± 0.039	4.62 ± 0.92
323.15 K, x1 = 0.6015	1.78 ± 0.036	5.8 ± 1.2
323.15 K, x1 = 0.7032	1.57 ± 0.031	7.7 ± 1.5
323.15 K, x1 = 0.8004	1.4 ± 0.028	10.3 ± 2.1
323.15 K, x1 = 0.9002	1.24 ± 0.025	14.3 ± 2.9
323.15 K, x1 = 1	1.12 ± 0.023	20 ± 4
328.15 K, x1 = 0.1022	2.02 ± 0.041	1.65 ± 0.33
328.15 K, x1 = 0.2001	2.67 ± 0.053	1.99 ± 0.4
328.15 K, x1 = 0.3021	2.62 ± 0.053	2.68 ± 0.54
328.15 K, x1 = 0.3996	2.43 ± 0.049	3.33 ± 0.67
328.15 K, x1 = 0.5012	2.21 ± 0.044	4.05 ± 0.81
328.15 K, x1 = 0.6015	1.99 ± 0.04	5 ± 1
328.15 K, x1 = 0.7032	1.78 ± 0.036	6.6 ± 1.3
328.15 K, x1 = 0.8004	1.6 ± 0.032	8.8 ± 1.8
328.15 K, x1 = 0.9002	1.45 ± 0.029	12.1 ± 2.4
328.15 K, x1 = 1	1.32 ± 0.026	17.2 ± 3.4
333.15 K, x1 = 0.1022	2.17 ± 0.043	1.54 ± 0.31
333.15 K, x1 = 0.2001	2.9 ± 0.058	1.85 ± 0.37
333.15 K, x1 = 0.3021	2.88 ± 0.058	2.42 ± 0.48
333.15 K, x1 = 0.3996	2.68 ± 0.054	3 ± 0.6
333.15 K, x1 = 0.5012	2.45 ± 0.049	3.57 ± 0.71
333.15 K, x1 = 0.6015	2.24 ± 0.045	4.38 ± 0.88
333.15 K, x1 = 0.7032	2.02 ± 0.04	5.8 ± 1.2
333.15 K, x1 = 0.8004	1.83 ± 0.037	7.5 ± 1.5
333.15 K, x1 = 0.9002	1.65 ± 0.033	10.4 ± 2.1
333.15 K, x1 = 1	1.51 ± 0.03	14.8 ± 3
